One assay relates to HELA. Put plainly: MTT cell viability, HELA. The class given is cell-based. The following applies: Homo sapiens, cervical cancer, 48 h of drug treatment, average of three experiments. The text has this:
(§1) Cell culture: In this study five different cancer cell lines were used, human lung carcinoma (A549), human breast adenoma (MCF-7), Cervical carcinoma (Hela), hepatocellular carcinoma (Hep3B), and colorectal adenocarcinoma (HCT-116). These cells were obtained from the European Collection of Cell Cultures (ECACC, UK). Hep3B cells were maintained in Dulbecco's Modified Eagle Medium (DMEM: Sigma-Aldrich), and the four other cell lines were maintained in Roswell Park Memorial Institute medium (RPMI, Sigma-Aldrich, St. Louis, Mo., USA), which was supplemented with 10% fetal bovine serum (FBS, Sigma-Aldrich) and 1% penicillin/streptomycin (Sigma-Aldrich). Cells were incubated all the time at 37° C. in a humidified atmosphere of 5% CO2. Cell viability studies: Cell viability was assessed using the MTT assay as described before. In brief, all cancer cell lines were seeded at a density of 4×10^4/well in 96 well flat-bottom plates. After 24 h from seeding, cells were treated with the synthesized compounds and left for an incubation period of 48 h. Upon reaching the indicated time point, the media was removed and replaced with 200 μL fresh media containing 0.5 mg/mL of MTT tetrazolium dye (Sigma-Aldrich). Cells were then incubated with MTT solution for 2 h at 37° C. The resultant formazan crystals were dissolved in 200 μl/well of DMSO and absorbance was measured at 570 nm using a microplate reader (Thermo Scientific).

The test system of another assay is A549. Briefly: MTT cell viability, A549. Format: cell-based. The following applies: Homo sapiens, lung cancer, 48 h of drug treatment, average of three experiments.
Source text: as §1

The test system of a further assay is HEP3B. Put plainly: MTT cell viability, HEP3B. Format: cell-based. The note with it: Homo sapiens, liver cancer, 48 h of drug treatment, average of three experiments.
Source text: as §1

The test system of the next assay is MCF-7. Put plainly: MTT cell viability, MCF-7. The class given is cell-based. The following applies: Homo sapiens, MCF7; breast cancer; 48 h of drug treatment; average of three experiments.
Source text: as §1

In assay [1] the test system is normal epithelial cells (HMEC). Briefly: Cell viability, normal epithelial cells. Format: cell-based. The note with it: Homo sapiens, 48 h of drug treatment, average of three experiments. The procedure:
Cell viability studies: Cell viability was assessed using the MTT assay as described before. In brief, all cancer cell lines were seeded at a density of 4×10^4/well in 96 well flat-bottom plates. After 24 h from seeding, cells were treated with the synthesized compounds and left for an incubation period of 48 h. Upon reaching the indicated time point, the media was removed and replaced with 200 μL fresh media containing 0.5 mg/mL of MTT tetrazolium dye (Sigma-Aldrich). Cells were then incubated with MTT solution for 2 h at 37° C. The resultant formazan crystals were dissolved in 200 μl/well of DMSO and absorbance was measured at 570 nm using a microplate reader (Thermo Scientific).

Assay [2] has as its system MRSA-1 (clinical isolate). Put plainly: MIC broth microdilution, MRSA-1. Format: cell-based, Staphylococcus aureus. The following applies: Staphylococcus aureus, MRSA; overnight incubation, Mueller-Hinton broth; read-out: MIC MRSA-1 (clinical isolate). Put shortly: (§2)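 Strains are MRSA clinical isolates, a reference MRSA strain, or non-MDR A. baumannii ATCC 19606. Each was grown in Mueller-Hinton broth at approximately 5×10^5 CFU/mL against compound serially halved from 100 to 0.78 μg/mL. MIC was read by eye after overnight 37° C incubation.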
Background: Dilution methods test growth across graded concentrations, often in twofold steps.

Assay [3] relates to MRSA-2 (clinical isolate). Briefly: MIC broth microdilution, MRSA-2. The class given is cell-based, Staphylococcus aureus. The note with it: Staphylococcus aureus, MRSA; overnight incubation, Mueller-Hinton broth; read-out: MIC MRSA-2 (clinical isolate). Put shortly: as §2
The subject of assay [4] is MRSA-3 (clinical isolate). Put plainly: MIC broth microdilution, MRSA-3. The note with it: Staphylococcus aureus, MRSA; overnight incubation, Mueller-Hinton broth; read-out: MIC MRSA-3 (clinical isolate). The class given is cell-based, Staphylococcus aureus. Put shortly:
as §2

Another assay has as its system MRSA-ATCC33591. Briefly: MIC broth microdilution, MRSA ATCC33591. The class given is cell-based, Staphylococcus aureus. The following applies: Staphylococcus aureus; overnight incubation, Mueller-Hinton broth; read-out: MIC MRSA-ATCC33591. Put shortly: as §2
A further assay has as its system MRSA-ATCC33592. Put plainly: MIC broth microdilution, MRSA ATCC33592. Format: cell-based, Staphylococcus aureus. The following applies: Staphylococcus aureus; overnight incubation, Mueller-Hinton broth; read-out: MIC MRSA-ATCC33592. The procedure, abridged:
as §2

The subject of a further assay is MRSA-ATCC700699 (VISA). Put plainly: MIC broth microdilution, MRSA ATCC700699 (VISA). Format: cell-based, Staphylococcus aureus. The following applies: for MIC: Staphylococcus aureus, strain intermediately resistant to vancomycin, overnight incubation, read-out: MIC MRSA-ATCC700699 (VISA). Put shortly: as §2
A further assay relates to E. coli ATCC25922. Briefly: MIC broth microdilution, E. coli ATCC25922. The class given is cell-based, Escherichia coli. The note with it: Escherichia coli, ATCC25922; not MDR; overnight incubation. The procedure, abridged:
(§3)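 Visible turbidity served as the growth read-out, and MIC was recorded as the lowest inhibiting concentration following overnight incubation at 37° C. Testing followed CLSI broth microdilution in Mueller-Hinton medium, inoculum near 5×10^5 CFU/mL, compound range 100-0.78 μg/mL in two-fold steps.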

Assay [5] concerns E. coli ATCC BAA2469 (NDM-1 carbapenem-resistant). Briefly: MIC broth microdilution, E. coli ATCC BAA2469. Format: cell-based, Escherichia coli. The note with it: overnight incubation; for MIC: Escherichia coli, ATCCBAA2469, MDR; for MIC E. coli ATCC BAA2469 (NDM-1 carbapenem-resistant): MDR. The procedure, abridged: as §3
Assay [6] relates to E. coli CDC-AR-0346 (ESBL, colistin resistant). Put plainly: MIC broth microdilution, E. coli CDC-AR-0346. The class given is cell-based, Escherichia coli. The following applies: for MIC fold higher than that of colistin: E. coli CDC-AR-0346, colistin 6.25 μg/mL; for MIC: Escherichia coli, MDR, overnight incubation. Put shortly: as §3
Assay [7] relates to Acinetobacter baumannii ATCC BAA1605 (carbapenem-resistant). Briefly: MIC broth microdilution, A. baumannii ATCC BAA1605. The class given is cell-based. The following applies: Acinetobacter baumannii, ATCCBAA1605, MDR; overnight incubation. The procedure, abridged:
as §3

Values after ≈ are worked out from the molar mass of the structure shown.

Usually IC50 stands for the concentration at which inhibition is half-maximal. As usually defined, the MIC is the lowest concentration found to suppress growth.

In the case of `Cc1ccc2c(c1)c1c3n2[C@@]2(C=C/C(=N\Nc4ccc(C(F)(F)F)cc4)CC2)CC[C@@H]3NCC1` [Compound 1h], the 50% inhibitory concentration (IC50) was 3.5 ± 0.06 µM with HELA; 4.897 ± 0.03 µM in the assay with A549; 2.56 ± 0.07 µM with HEP3B; 3.72 ± 0.05 µM in the assay with MCF-7; 11.53 ± 0.04 µM in [1]. In addition, the MIC (in assay [2]; in assay [3]; in [4]; in the assay with MRSA-ATCC33591; in the assay with MRSA-ATCC33592; in the assay with MRSA-ATCC700699 (VISA)) was 1.56 µg/mL (≈ 3.36 µM) throughout. Also, the MIC in the assay with E. coli ATCC25922 was 12.5 µg/mL (≈ 26.9 µM); in assay [5] it was 6.25 to 12.5 µg/mL (≈ 13.5 to 26.9 µM); in assay [6] it was 12.5 µg/mL (≈ 26.9 µM); in assay [7] it was 25 µg/mL (≈ 53.8 µM). Also, the “MIC times less than the MIC of vancomycin” value in the assay on MRSA-ATCC700699 (VISA) (VISA strain ATCC 700699, vancomycin 8 μg/mL) is ~5 times. Besides, the “MIC E. coli ATCC BAA2469 (NDM-1 carbapenem-resistant)” value in assay [5] turned out to be 12.5 µg/mL (≈ 26.9 µM). The “MIC fold higher than that of colistin” value in [6] stood at 2 fold.
In the case of `COc1ccc2c(c1)c1c3n2[C@@]2(C=C/C(=N\Nc4ccc(C(F)(F)F)cc4)CC2)CC[C@@H]3NCC1` [Compound 1k], the IC50 turned out to be 4.514 ± 0.03 µM in the assay on HELA; 5.491 ± 0.05 µM in the assay with A549; 2.276 ± 0.01 µM in the assay on HEP3B; 3.57 ± 0.34 µM in the assay on MCF-7; 28.01 ± 0.09 µM in assay [1]. Moreover, the MIC in assay [2] came to 1.56 µg/mL (≈ 3.25 µM); in [3], 1.56 µg/mL (≈ 3.25 µM); in assay [4], 1.56 µg/mL (≈ 3.25 µM); in the assay on MRSA-ATCC33591, 3.12 µg/mL (≈ 6.5 µM); with MRSA-ATCC33592, 3.12 µg/mL (≈ 6.5 µM); in the assay on MRSA-ATCC700699 (VISA), 3.12 µg/mL (≈ 6.5 µM). Moreover, the minimal inhibitory concentration (MIC) is 6.25 µg/mL (≈ 13 µM) with E. coli ATCC25922, 25 µg/mL (≈ 52 µM) in assay [5], 50 µg/mL (≈ 104 µM) in assay [6] and 50 µg/mL (≈ 104 µM) in [7].
In the case of `FC(F)(F)Oc1ccc(N/N=C2\C=C[C@@]3(CC2)CC[C@@H]2NCCc4c2n3c2ccccc42)cc1` [Compound 1f], the IC50 in the assay with HELA is 3.89 ± 0.07 µM; with A549, 5.99 ± 0.03 µM; in the assay with HEP3B, 2.64 ± 0.03 µM; in the assay with MCF-7 it was 3.56 ± 0.1 µM; in assay [1] it was 18.38 ± 0.05 µM. Also, the minimal inhibitory concentration (MIC) (in assay [2]; in [3]; in [4]; in the assay on MRSA-ATCC33591; in the assay on MRSA-ATCC33592; in the assay with MRSA-ATCC700699 (VISA)) was 6.25 µg/mL (≈ 13.4 µM) throughout. In addition, the MIC in the assay with E. coli ATCC25922 stood at 12.5 µg/mL (≈ 26.8 µM); in [5], 25 µg/mL (≈ 53.6 µM); in assay [6] it was 25 µg/mL (≈ 53.6 µM); in assay [7], 25 µg/mL (≈ 53.6 µM).
As to `FC(F)(F)c1ccc(N/N=C2\C=C[C@@]3(CC2)CC[C@@H]2NCCc4c2n3c2ccccc42)cc1` (racemic) [Compound 1e], the half-inhibitory concentration (IC50) in the assay with HELA stood at 2.56 ± 0.58 µM; in the assay on A549 it was 4.011 ± 0.02 µM; in the assay with HEP3B it was 2.03 ± 0.08 µM; in the assay with MCF-7, 1.86 ± 0.03 µM; in assay [1] it was 2.91 ± 0.07 µM. For the same molecule, the MIC is 1.56 µg/mL (≈ 3.46 µM) in assay [2]; 1.56 µg/mL (≈ 3.46 µM) in assay [3]; 1.56 µg/mL (≈ 3.46 µM) in assay [4]; 3.12 µg/mL (≈ 6.94 µM) in the assay with MRSA-ATCC33591; 3.12 µg/mL (≈ 6.94 µM) in the assay on MRSA-ATCC33592; 3.12 µg/mL (≈ 6.94 µM) in the assay on MRSA-ATCC700699 (VISA). Moreover, the minimum inhibitory concentration (MIC) against E. coli ATCC25922 was 6.25 µg/mL (≈ 13.9 µM); in assay [5], 6.25 to 12.5 µg/mL (≈ 13.9 to 27.7 µM); in assay [6] it was 12.5 µg/mL (≈ 27.7 µM); in assay [7] it was 12.5 µg/mL (≈ 27.7 µM). For the same molecule, in assay [5], the “MIC E. coli ATCC BAA2469 (NDM-1 carbapenem-resistant)” value turned out to be 12.5 µg/mL (≈ 27.7 µM). In addition, the “MIC fold higher than that of colistin” value in [6] is 2 fold.

Source of the values: patent publication US11286258B2, “Nature-inspired anticancer and antibacterial motifs and pharmaceutical composition thereof” (University of Sharjah, priority 2020, dated 2022).
